Data: patent US9376442B2, “Methylpyrrolopyrimidinecarboxamides” (Takeda GmbH, priority 2009, dated 2016)

Assays:
[1] = test system: bleomycin-induced pulmonary fibrosis and pulmonary hypertension; conditions: Hemnes et al. 2008; cited from earlier work
[2] = test system: patients with pulmonary fibrosis; conditions: Ghofrani 2002, Collard 2007; cited from earlier work
mice = conditions: bleomycin-induced lung fibrosis model in mice; Cortijo et al. 2009; cited from earlier work
PDE5A1 = molecular target: T1, PDE5A1 (Homo sapiens, UniProt O76074); test: Inhibition of type 5 phosphodiesterase (PDE5) activity, modified SPA test with human platelet lysate; assay type: biochemical; conditions: 0.5 μM cGMP, read-out: PDE5A1 inhibitory values [measured as −log IC50 (mol/l)] (converted)
T1 construct: from tissue; host or cells: human platelets from fresh donor blood (10,000 x g supernatant of sonicated lysate)
How it was run: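 Scintillation proximity assay with [3H]cGMP tracer at 0.5 μM total cGMP, stopped after 15 min with beads containing IBMX. PDE3 and PDE2 activities suppressed with motapizone (1 μM) and a PDE2 inhibitor (10 nM). Human platelet supernatant served as the enzyme, with compound preincubated 5 min at 37° C; IC50 values from concentration-effect curves.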

PDE4B1 = molecular target: T2, PDE4B1 (Homo sapiens, UniProt Q07343); test: Inhibition of type 4 phosphodiesterase (PDE4) activity, modified SPA test with recombinant PDE4B1 expressed in SF21 insect cells; assay type: biochemical; conditions: recombinant PDE4B1, 0.5 μM cAMP, read-out: PDE4B1 inhibitory values [measured as −log IC50 (mol/l)] (converted)
T2 construct: made in house; host or cells: SF21 insect cells (baculovirus; pCRBac vector), 1000 x g supernatant of homogenate
How it was run: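 Modified [3H]cAMP SPA using 1000×g supernatant of SF21 cells expressing recombinant human PDE4B1, in 20 mM Tris pH 7.4, 0.1 mg/ml BSA, 5 mM Mg2+, 0.5 μM cAMP. After 5 min preincubation at 37 °C, 15 min reaction, stopped with SPA beads plus IBMX; IC50 by non-linear regression.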

T2 sequence (Q07343 whole entry): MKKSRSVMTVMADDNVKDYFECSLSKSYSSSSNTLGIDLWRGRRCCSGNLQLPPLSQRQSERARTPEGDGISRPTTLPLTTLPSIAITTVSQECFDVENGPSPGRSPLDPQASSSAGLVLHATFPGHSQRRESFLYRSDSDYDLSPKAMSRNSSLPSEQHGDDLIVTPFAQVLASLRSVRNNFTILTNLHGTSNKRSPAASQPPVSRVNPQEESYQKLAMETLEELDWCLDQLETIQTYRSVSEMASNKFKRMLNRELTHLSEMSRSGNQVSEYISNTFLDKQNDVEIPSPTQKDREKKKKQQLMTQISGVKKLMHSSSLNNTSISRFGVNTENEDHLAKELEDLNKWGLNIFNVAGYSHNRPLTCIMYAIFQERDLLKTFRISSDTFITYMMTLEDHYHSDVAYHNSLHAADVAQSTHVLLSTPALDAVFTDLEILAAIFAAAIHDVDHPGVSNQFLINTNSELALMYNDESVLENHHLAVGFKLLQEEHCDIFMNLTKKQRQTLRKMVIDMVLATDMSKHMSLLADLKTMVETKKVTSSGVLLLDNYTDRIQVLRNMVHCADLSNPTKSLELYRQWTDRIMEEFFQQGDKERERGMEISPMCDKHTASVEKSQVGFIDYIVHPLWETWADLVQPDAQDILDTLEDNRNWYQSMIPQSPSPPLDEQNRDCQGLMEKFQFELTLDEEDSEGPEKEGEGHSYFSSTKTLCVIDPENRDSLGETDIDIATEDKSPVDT

SMILES | IC50 (PDE5A1) | IC50 (PDE4B1) | also measured
CCCc1nn(C)c2c(=O)[nH]c(-c3cc(S(=O)(=O)N4CCN(C)CC4)ccc3OCC)nc12 [sildenafil] |  |  | bleomycin-induced pulmonary fibrosis and pulmonary hypertension [1]: attenuates bleomycin-induced pulmonary fibrosis and pulmonary hypertension; exercise tolerance [2]: increases exercise tolerance; lung hemodynamic (vascular resistance and ventilation/perfusion matching) [2]: improves lung hemodynamic
O=C(Nc1c(Cl)cncc1Cl)c1ccc(OC(F)F)c(OCC2CC2)c1 [roflumilast] |  |  | fibrosis development (mice): inhibit fibrosis development
CCC(=O)N1CCC(NC(=O)c2c(C)[nH]c3c(-c4cc(F)ccc4OCC4CC4)ncnc23)CC1 [Example E38, 4-[2-(cyclopropylmethoxy)-5-fluorophenyl]-6-methyl-N-(1-propionylpiperidin-4-yl)-5H-pyrrolo[3,2-d]pyrimidine-7-carboxamide] | < 1 nM | 100 to 1000 nM | 
CCOC(=O)N[C@H]1CC[C@H](NC(=O)c2c(C)[nH]c3c(-c4cc(F)ccc4OCC4CC4)ncnc23)CC1 [Example E44, Ethyl {trans-4-[({4-[2-(cyclopropylmethoxy)-5-fluorophenyl]-6-methyl-5H-pyrrolo[3,2-d]pyrimidin-7-yl}carbonyl)amino]cyclohexyl}carbamate] | < 1 nM | < 100 nM | 
CCc1ccc(OCC2CC2)c(-c2ncnc3c(C(=O)N[C@@H]4CN(C(=O)COC)C[C@H]4O)c(C)[nH]c23)c1 (relative stereo) [Example E156, 4-[2-(Cyclopropylmethoxy)-5-ethylphenyl]-N-[(3R*,4R*)-4-hydroxy-1-(methoxyacetyl)pyrrolidin-3-yl]-6-methyl-5H-pyrrolo[3,2-d]pyrimidine-7-carboxamide] | 1 to 10 nM | 100 to 1000 nM | 
Cc1ccc(OCC2CC2)c(-c2ncnc3c(C(=O)N[C@@H]4CCC[C@H]4O)c(C)[nH]c23)c1 [Example E178, 4-[2-(Cyclopropylmethoxy)-5-methylphenyl]-N-[(1R,2R)-2-hydroxycyclopentyl]-6-methyl-5H-pyrrolo[3,2-d]pyrimidine-7-carboxamide] | < 1 nM | 100 to 1000 nM | 
CC(=O)N1CCC(NC(=O)c2c(C)[nH]c3c(-c4cc(F)ccc4OCC4CC4)ncnc23)CC1 [Example E37, 4-(2-Cyclopropylmethoxy-5-fluoro-phenyl)-6-methyl-5H-pyrrolo[3,2-d]pyrimidine-7-carboxylic acid (1-acetyl-piperidin-4-yl)-amide] | < 1 nM | 100 to 1000 nM | 
COCC(=O)N[C@H]1CC[C@H](NC(=O)c2c(C)[nH]c3c(-c4cc(C)ccc4OCC4CC4)ncnc23)CC1 [Example E86, 4-[2-(Cyclopropylmethoxy)-5-methylphenyl]-N-{trans-4-[(methoxyacetyl)amino]cyclohexyl}-6-methyl-5H-pyrrolo[3,2-d]pyrimidine-7-carboxamide] | < 1 nM | < 100 nM | 
CCC(=O)N[C@H]1CC[C@H](NC(=O)c2c(C)[nH]c3c(-c4cc(OC)ccc4OCC4CC4)ncnc23)CC1 [Example E70, 4-[2-(Cyclopropylmethoxy)-5-methoxyphenyl]-6-methyl-N-[trans-4-(propionylamino)cyclohexyl]-5H-pyrrolo[3,2-d]pyrimidine-7-carboxamide] | < 1 nM | 100 to 1000 nM | 

Second part, led by results:

IC50 (PDE5A1) | IC50 (PDE4B1) | SMILES | also measured
< 1 nM | 100 to 1000 nM | Cc1[nH]c2c(-c3cc(C(C)C)ccc3OCC3CC3)ncnc2c1C(=O)N[C@H]1CC[C@@H](NC(=O)[C@H](C)O)CC1 [Example F101, 4-[2-(Cyclopropylmethoxy)-5-(propan-2-yl)phenyl]-N-(cis-4-{[(2S)-2-hydroxypropanoyl]amino}cyclohexyl)-6-methyl-5H-pyrrolo[3,2-d]pyrimidine-7-carboxamide] | 
< 1 nM | < 100 nM | Cc1[nH]c2c(-c3cc(C(F)(F)F)ccc3OCC3CC3)ncnc2c1C(=O)N[C@H]1CC[C@@H](NC(=O)CO)CC1 [Example F61, 4-[2-(Cyclopropylmethoxy)-5-(trifluoromethyl)phenyl]-N-{cis-4-[(hydroxyacetyl)amino]cyclohexyl}-6-methyl-5H-pyrrolo[3,2-d]pyrimidine-7-carboxamide] | 
< 1 nM | < 100 nM | COCC(=O)N[C@@H]1CC[C@@H](NC(=O)c2c(C)[nH]c3c(-c4cc(C(F)F)ccc4OCC4CC4)ncnc23)[C@H](F)C1 (relative stereo) [Example P161, 4-[2-(Cyclopropylmethoxy)-5-(difluoromethyl)phenyl]-N-{(1R*,2R*,4R*)-2-fluoro-4-[(methoxyacetyl)amino]cyclohexyl}-6-methyl-5H-pyrrolo[3,2-d]pyrimidine-7-carboxamide] | 
< 1 nM | 100 to 1000 nM | Cc1[nH]c2c(-c3cc(C(C)C)ccc3OCC3CC3)ncnc2c1C(=O)NC1CCN(C(=O)[C@H](C)O)CC1 [Example F99, 4-[2-(Cyclopropylmethoxy)-5-(propan-2-yl)phenyl]-N-{1-[(2S)-2-hydroxypropanoyl]piperidin-4-yl}-6-methyl-5H-pyrrolo[3,2-d]pyrimidine-7-carboxamide] | 
< 1 nM | 100 to 1000 nM | Cc1[nH]c2c(-c3cc(C(C)C)ccc3OCC3CC3)ncnc2c1C(=O)N[C@H]1CC[C@H](NC(=O)[C@H](C)O)CC1 [Example F100, 4-[2-(Cyclopropylmethoxy)-5-(propan-2-yl)phenyl]-N-(trans-4-{[(2S)-2-hydroxypropanoyl]amino}cyclohexyl)-6-methyl-5H-pyrrolo[3,2-d]pyrimidine-7-carboxamide] | 
